# Assay results published in patent US20070191435A1, “HYDROCHLORIDE SALT OF 5-[4-[2-(N-METHYL-N-(2-PYRIDYL)AMINO)ETHOXY]BENZYL]THIAZOLIDINE-2,4-DIONE” (SmithKline Beecham p.l.c., priority 2000, published 2007).
# How the values were obtained:
# [1] = Solubility in water, visual, confirmed by HPLC assay of a saturated solution; type: physicochemical; details: thermodynamic from solid
# Source text: The visual solubility was confirmed by an HPLC assay of a saturated solution.
# [2] = Solid state stability of the drug substance, assayed by HPLC; type: physicochemical; details: 1 month
# Method: The solid state stability of the drug substance was determined by storing approximately 1.0 g of the material in a glass bottle at a) 40° C./75% Relative Humidity (RH), open exposure, for 1 month and b) at 50° C., closed, for 1 month. […] Solubility of the Hydrochloride
structure (smiles),measurement,setting,value
"CN(CCOc1ccc(CC2SC(=O)NC2=O)cc1)c1ccccn1.Cl (centres unmarked) [Hydrochloride, 5-[4-[2-(N-methyl-N-(2-pyridyl)amino)ethoxy]benzyl]thiazolidine-2,4-dione hydrochloride]",solubility,[1],25 mg/mL
same,HPLC assay for final content,"[2]; 40° C./75% RH, open exposure",100 % initial
same,degradation products (HPLC),"[2]; 40° C./75% RH, open exposure",No significant degradation observed
same,HPLC assay for final content,"[2]; 50° C., closed",101 % initial
same,degradation products (HPLC),"[2]; 50° C., closed",No significant degradation observed
